# Measured values reported in patent publication US20260048099A1, “SYNERGISTIC INTERACTIONS FOR IMPROVED CANCER TREATMENT” (THE UNITED STATES OF AMERICA, AS REPRESENTED BY THE …, priority 2022, published 2026).
# B1: IL-12p70: active IL-12 heterodimer of IL-12A (p35) and IL-12B (p40), referred to as p70 (protein, UniProt P29459 23-219; P29460 23-328, looked up)
# Interleukin-12 subunit alpha: RNLPVATPDPGMFPCLHHSQNLLRAVSNMLQKARQTLEFYPCTSEEIDHEDITKDKTSTVEACLPLELTKNESCLNSRETSFITNGSCLASRKTSFMMALCLSSIYEDLKMYQVEFKTMNAKLLMDPKRQIFLDQNMLAVIDELMQALNFNSETVPQKSSLEEPDFYKTKIKLCILLHAFRIRAVTIDRVMSYLNAS
# Interleukin-12 subunit beta: IWELKKDVYVVELDWYPDAPGEMVVLTCDTPEEDGITWTLDQSSEVLGSGKTLTIQVKEFGDAGQYTCHKGGEVLSHSLLLLHKKEDGIWSTDILKDQKEPKNKTFLRCEAKNYSGRFTCWWLTTISTDLTFSVKSSRGSSDPQGVTCGAATLSAERVRGDNKEYEYSVECQEDSACPAAEESLPIEVMVDAVHKLKYENYTSSFFIRDIIKPDPPKNLQLKPLKNSRQVEVSWEYPDTWSTPHSYFSLTFCVQVQGKSKREKKDRVFTDKTSATVICRKNASISVRAQDRYYSSSWSEWASVPCS
# What was measured:
# [1] = system: tumor-infiltrating CD8^+T, NK cells and DC populations in EO771 tumors; test: Flow cytometry and IHC of immune infiltrates in EO771 tumors and draining lymph nodes; type: in vivo, C57BL/6 mice; settings: flow cytometry
# Method: EO771 tumors were analyzed by flow cytometry and immunohistochemistry (IHC) to explore the changes in the tumor immune phenotype upon hetIL-15 treatment. The shorter treatment schedule consisting of 3 hetIL-15 injections was used for these analyses and the tumors were assessed 48 h after the last injection (FIG. 1A). […] Overall, hetIL-15 administration altered the tumor microenvironment by promoting the intratumoral infiltration of activated cytotoxic T and NK cells, as we previously reported (Bergamaschi et al., 2020; Ng et al., 2017).
# Guided by our transcriptomic data and our recent report (Bergamaschi et al., 2020), we established a flow cytometry staining protocol (FIG. 3B) that allows distinction of different myeloid cell populations (Bottcher et al., 2018; Guilliams et al., 2016). CD103^+cDC1s were defined as Lin(NK1.1,CD19,B220,CD3)^negCD64^−MHCII^+CD11c^+CD103^+CD11b^−; CD11b^+cDC2s were defined as Lin(NK1.1,CD19,B220,CD3)^negCD64^−MHCII^+CD11c^+CD103^−CD11b^+ and macrophages were defined as Lin(NK1.1, CD19,B220,CD3)^negCD64^+F4/80^+. […] Importantly, tumor infiltration by both […] and CD103^intCD11b^+DCs inversely correlated with the EO771 tumor size in hetIL-15 treated animals 48 hrs after the 3rd hetIL-15 injection (FIG. 3F). In contrast, no correlation between intratumoral CD11b^+cDC2s and tumor size was observed (FIG. 3F).
# Tissue samples, including tumors, were fixed in 10% neutral buffered formalin (NBF, Sigma) then routinely processed and paraffin embedded. Tumor and lung sections were dewaxed and rehydrated and then were stained with hematoxylin and eosin (H&E). For immunohistochemistry, sections were antigen-retrieved with heat-induced or enzymatic method. Peroxidase activity was blocked using 1.5% hydrogen peroxide. Sections were blocked with different blocking protocols, depending on the antibody. […]
# At necropsy tumors and dLNs were processed for flow cytometric analysis. […] The samples were acquired on a Fortessa (BD Biosciences) flow cytometer, and the data were analyzed using the FlowJo software (Tree Star).
# xenograft models = settings: cited from earlier work
# NK-92 cells = test: IFN-γ production by stimulated NK-92 cells; type: cell-based; settings: stimulation of NK-92 cells
Molecule,Intratumoral CD11b+cDC2 (cells per gram of tissue) [1],Intratumoral CD103+cDC1 (cells per gram of tissue) [1],Intratumoral CD103intCD11b+DC (cells per gram of tissue) [1],Lowest dose with activity in animal models (xenograft models; doses as low as) [mg/kg],Efficacy and tolerability (xenograft models; xenograft models),IFN-γ production (NK-92 cells)
"CC(C)(C)c1cc(NC(=O)Nc2ccc(-c3cn4c(n3)sc3cc(OCCN5CCOCC5)ccc34)cc2)no1.Cl.Cl [AC220, N-(5-tert-butyl-isoxazol-3-yl)-N′-{4-[7-(2-morpholin-4-yl-ethoxy)imidazo[2,1-b][1,3]benzothiazol-2-yl]phenyl}urea dihydrochloride]",increased infiltration of CD11b^+cDC2s,"a minor effect on CD103+cDC1s, decreasing this DC population",no significant difference,1,good efficacy and tolerability,–
B1,–,–,–,–,–,results in IFN-γ production
